Measurements: US20110280849A1, “TUMOR SUPPRESSION USING HUMAN PLACENTA-DERIVED INTERMEDIATE NATURAL KILLER CELLS AND IMMUNOMODULATORY COMPOUNDS” (Anthrogenesis Corporation, priority 2010, published 2011)

Experiments:
cultured PINK cells = assay: qRT-PCR gene expression in lenalidomide- or pomalidomide-treated cultured PINK cells
Source text: Quantitative real-time (qRT-PCR) analysis. Isolated RNA can then be used for cDNA synthesis using TAQMAN® Reverse Transcription Reagents (Applied Biosystems, Cat #N8080234) followed by real-time PCR analysis by the 7900HT Fast Real-Time PCR System using Human Immune Array (Applied Biosystems, Cat #4370573) and Human MicroRNA Array (Applied Biosystems, Cat #4384792).
The paired t-test is used to determine if fold changes are equal in lenalidomide-treated and -untreated samples. […] The paired t-test is used to determine if fold changes are equal in treated and untreated samples.

NK cells = assay: Flow cytometry of GZMB-positive NK cells after pomalidomide; type: cell-based, human

In the case of `Nc1cccc2c1C(=O)N(C1CCC(=O)NC1=O)C2=O` (racemic) [pomalidomide, 4-amino-2-[(3RS)-2,6-dioxopiperidin-3-yl)-1H-isoindole-1,3(2H)-dione], the “increase in granzyme B (GZMB) gene expression” value (cultured PINK cells) is reported as 60%±1.7% and the “increase in percentage of GZMB-positive NK cells” value (NK cells) is reported as 25%.
